Results as given in patent US20080140138A1, “Inhibition of inflammatory cytokine production by stimulation of brain muscarinic receptors” (priority 2002, published 2008).
Counter-ions that a name gives are not always drawn.

Tests used:
LPS-induced serum TNF = LPS-induced serum TNF after i.c.v. drug injection, L929 bioactivity assay; type: in vivo, Lewis rats; conditions: i.c.v.; for effect in reducing LPS-induced serum TNF levels: nicotine 10 μg/rat, prozak 0.01 mg/10 g, LPS 15 mg/kg i.v. 1 h later
Description: Method of stereotactic intracerebroventricular injections. […] Lewis rats were anaesthetized with urethane (1 g/kg, i.p.) and xylazine (15 mg/rat, i.m. (intramuscular)). Rats were then placed in a stereotactic head frame (Stoelting, Wood Dale, Ill., USA). The incisor bar was adjusted until the plane defined by the lambda and bregma was parallel to the base plate. For i.c.v. injections the needle of a Hamilton syringe (25 μl) was positioned stereotactically above the lateral ventricle (0.2 mm and 1.5 mm posterior to bregma, 3.2 mm below the dura.) Solutions of the drugs tested were prepared in sterile endotoxin-free water, at the specified concentrations, and a 10-μl injection/rat was administered over 2 min, 1 h prior to either carrageenan injection, or to LPS.
In one set of experiments, rats were injected by i.c.v. means with either saline (n=1), CNI-1493 (5 μg/rat, n=3), CNI-1493 plus atropine (5 μg/rat each), or atropine (5 μg/rat). LPS (15 mg/kg, i.v.) was given 1 h later. Blood was collected 2 h post LPS administration. Serum TNF was determined by the L929 assay.

[1] = system: carrageenan-induced paw edema; conditions: low doses, direct administration to the brain; cited from earlier work
[2] = system: carrageenan-induced hindpaw edema; assay: Carrageenan-induced hindpaw edema; type: in vivo, Lewis rats
Description: Method of determining CNI-1493 receptor binding. CNI-1493 was tested at a single concentration (10 μM) in a panel of receptor binding assays by NovaScreen Biosciences Corporation (Hanover, Md.). Values were expressed as the percent inhibition of specific binding, and represented the average of duplicate tubes. Method of stereotactic intracerebroventricular injections. A rat model of intracerebroventricular (i.c.v.) injections was established in order to be able to directly deliver pharmacological agents into the brain of rats. This was necessary in order to separate drug effects on peripheral inflammation that occurred through central versus peripheral mechanisms. Lewis rats were anaesthetized with urethane (1 g/kg, i.p.) and xylazine (15 mg/rat, i.m. (intramuscular)). Rats were then placed in a stereotactic head frame (Stoelting, Wood Dale, Ill., USA). The incisor bar was adjusted until the plane defined by the lambda and bregma was parallel to the base plate. For i.c.v. injections the needle of a Hamilton syringe (25 μl) was positioned stereotactically above the lateral ventricle (0.2 mm and 1.5 mm posterior to bregma, 3.2 mm below the dura.) Solutions of the drugs tested were prepared in sterile endotoxin-free water, at the specified concentrations, and a 10-μl injection/rat was administered over 2 min, 1 h prior to either carrageenan injection, or to LPS.
The tested drugs, in either the carrageenan and/or LPS experiments, were: saline control; fluoxetine hydrochloride, (also known as Prozak) (0.01 mg/100 g); muscarine (50 μg/rat, 5 μg/rat, 0.5 μg/rat, 0.05 μg/rat, 0.005 μg/rat); 4-(N-[3-chlorophenyl]carbamoyloxy)-2-butynyltrimethylammonium chloride (also known as McN-A-343) (5 μg/rat); Muscarinic Toxin-3, (also known as MT-3) from Dendroaspis angusticeps snake venom (0.37 μg/rat); nicotine (10 μg/rat); CNI-1493 (1 μg/kg, 50 μg/rat); atropine (1 μg/kg, 5 μg/rat); CNI-1493 plus atropine (1 μg/kg of each of the drugs; 50 μg/rat, 5 μg/rat respectively); naloxone hydrochloride (2 μg/rat), CNI-1493 plus naloxone (50 μg/rat+5 μg/rat respectively); and morphine (20 μg/rat).
Method of carrageenan-induced hindpaw edema. Paw edema was induced in anaesthetized rats by injection of 1% solution of 1-carrageenan (100 μl) into the plantar surface of the left hindpaw. The right hindpaw was injected with the same volume of saline alone (as control). The thickness of the carrageenan-treated and saline-treated hindpaw was measured using a caliper at 3 h post carrageenan, and the difference between paw thickness calculated as an index of inflammation (paw swelling). Method of LPS injections and TNF determination. LPS (15 mg/kg, i.v.) was injected in the tail vein 1 h after drug injection. Blood was obtained 2 h post LPS injection by paraorbital bleeding. Serum TNF concentrations were determined by an L929 bioactivity assay. Method of assessing TNF by the L929 bioactivity assay. L929 cells were suspended in Dulbecco's minimal Eagle's medium (DMEM; GibcoBRL) supplemented with fetal bovine serum (10%; Hyclone) and penicillin/streptomycin (0.5%; Sigma Chemical Co.), and plated at 2×10^4 cells per well in 96-well flat-bottomed microtiter plates. After 24 h, media were respirated and replaced with medium containing cycloheximide (10 μg/ml; Sigma Chemical Co.) and the samples to be assayed/TNF standards. Plates were incubated overnight, at which time cell viability as a function of TNF concentration was assessed by the MTT assay. Absorbance values were converted to units per milliliter by comparison with a standard curve for rat TNF.
In a third set of experiments, rats were injected by i.c.v. means with either saline (n=4), CNI-1493 (5 μg/rat, n=3), CNI-1493 plus atropine (5 μg/rat each), or atropine (5 μg/rat). Carrageenan was given to the animals 1 h later, and paw edema was determined 3 h post carrageenan. […]

LPS-induced TNF = LPS-induced TNF in serum and tissues after muscarine, ELISA; type: in vivo, rats; conditions: for LPS-induced heart TNF levels: heart tissue
Description: Methods of stereotactic intracerebroventricular injection of muscarine into rats and LPS injections were as described in Example 1. TNF levels in serum and tissues were determined using an enzyme-inked immunosorbent assay (ELISA) according to the manufacturere's instructions (R & D Systems (Minneapolis, Minn.)).
Rats were injected by i.c.v. means with either saline (control) or muscarine (0.005 μg/kg body weight, 0.5 μg/kg body weight, 5.0 μg/kg body weight, or 50 μg/kg body weight). LPS was administered 1 hour later. Two hours after LPS administration the rats were sacrificed and blood, heart tissue, and spleen tissue were isolated from the rats. As shown in FIGS. 9A-9C, i.c.v. administration of muscarine inhibited LPS-induced serum, heart, and spleen (peripheral) TNF levels.
Methods of LPS injections were as described in Example 1. Determination of serum and tissue TNF levels were as described in Example 4. Muscarine (or control saline) was intravenously injected into rats at concentrations of 0.05 μg/kg body weight, 0.5 μg/kg body weight, or 5.0 μg/kg body weight.
Rats were injected by i.v. means with either saline (control) or muscarine (0.05 μg/kg body weight, 0.5 μg/kg body weight, or 5.0 μg/kg body weight). LPS was administered 1 hour later. Two hours after LPS administration the rats were sacrificed and blood, liver tissue, heart tissue, and spleen tissue were isolated from the rats and assayed for TNF concentrations. As shown in FIGS. 10A-10D, intravenous administration of muscarine had no effect on LPS-induced serum, liver, heart, and spleen TNF levels.

[3] = muscarine i.c.v. 0.005-50 μg/kg body weight
[4] = muscarine i.v. 0.05, 0.5, 5.0 μg/kg body weight

Structure (SMILES): CN1CCCC1c1cccnc1 (stereo not shown) [nicotine]
- effect in reducing LPS-induced serum TNF levels (LPS-induced serum TNF): Neither nicotine nor prozak had any effect

Structure (SMILES): C[N+](C)(C)CCOC(N)=O [carbachol]
- effect on carrageenan-induced paw edema [1]: attenuation of paw edema

Structure (SMILES): C[C@@H]1O[C@H](C[N+](C)(C)C)C[C@H]1O [muscarine]
- effect of vagotomy on muscarine inhibition of paw edema ([2]; muscarine 0.5 μg/rat i.c.v., bilateral cervical vagotomy, P=0.015 SAL v. MUS, P=0.039 MUS v. MUS-VGX): Vagotomy clearly abrogates the inhibitory effects
- inhibition of carrageenan-induced paw edema ([2]; muscarine i.c.v. 5, 0.5, 0.05, 0.005 μg/rat): significantly inhibits carrageenan-induced paw edema in a dose-dependent manner
- LPS-induced heart TNF levels (LPS-induced TNF; [3]): inhibited
- LPS-induced serum TNF levels (LPS-induced TNF; [3]): inhibited
- LPS-induced spleen TNF levels (LPS-induced TNF; [3]): inhibited
- LPS-induced heart TNF levels (LPS-induced TNF; [4]): no effect
- LPS-induced liver TNF levels (LPS-induced TNF; muscarine i.v. 0.05, 0.5, 5.0 μg/kg body weight, liver): no effect
- LPS-induced serum TNF levels (LPS-induced TNF; [4]): no effect
- LPS-induced spleen TNF levels (LPS-induced TNF; [4]): no effect

Structure (SMILES): CN1[C@@H]2CC[C@H]1C[C@@H](OC(=O)C(CO)c1ccccc1)C2 (stereo partly shown) [atropine]
- effect of atropine on CNI-1493 inhibition of LPS-induced serum TNF (LPS-induced serum TNF; CNI-1493 plus atropine, 5 μg/rat each): reversed the inhibitory effect of CNI-1493 to the TNF level of atropine alone
- effect of atropine on CNI-1493 inhibition of paw edema ([2]; CNI-1493 plus atropine, 5 μg/rat each, i.c.v.): reverses the effect

Structure (SMILES): C[N+](C)(C)CC#CCOC(=O)Nc1cccc(Cl)c1.[Cl-] [McN-A-343, 4-(N-[3-chlorophenyl]carbamoyloxy)-2-butynyltrimethylammonium chloride]
- inhibition of paw edema, i.c.v. compared with i.p. administration ([2]; 5 μg/rat i.c.v. versus 5 mg/kg i.p.): comparable effect on inhibition of carrageenan-induced paw edema as a higher dose administered intraperitoneally
- inhibition of carrageenan-induced paw edema ([2]; i.c.v., McN-A-343 5 μg/rat, MT-3 0.37 μg/rat): significantly inhibits

Structure (SMILES): CNCCC(Oc1ccc(C(F)(F)F)cc1)c1ccccc1 (stereo not shown) [prozak, fluoxetine hydrochloride]
- effect in reducing LPS-induced serum TNF levels (LPS-induced serum TNF): Neither nicotine nor prozak had any effect
